Data reported in patent US20040023882A1, “PTH derivatives resistant to skin proteases” (priority 2002, published 2004).

Legend:
[1] = in vivo; cited from earlier work
[2] = format: in vitro ADME, hairless guinea pig
Description: Aliquots (100 μg) of peptide were incubated at 37° C. with skin extract (1 mL) over the indicated periods of time. The remaining peptide was separated and quantified by HPLC. The data represent averages of duplicate experiments;
The incubation of peptides (PTH(1-34), left panel and PTH(1-34) amide, right panel) with skin extracts, over the indicated times, was conducted as described in Example 2. Fractions containing the peaks were collected, lyophilized and the masses were determined by MALDI-TOF.
Hairless guinea pig skin extracts (1 mL aliquots) were prepared from samples of plasma and skin extracts, respectively, and stored at about −20° C. Stock solutions of hPTH(1-34), hPTH(1-34)NH2, hPTH (1-34)NH-propyl, and hPTH (1-34)NH-phenylpropyl were prepared in HPLC-grade water to achieve a concentration of 10 mg of peptide/mL. Aliquots of skin extracts (1 ml) were incubated at 37° C. for 10 minutes prior to the addition of peptide (100 μg; 10 μL stock solution) or water (10 μL) (control). […]
The lyophilized samples were resuspended in 200 μL of 0.1 N acetic acid and centrifuged at 13,000 g for 15 minutes at room temperature. […] Fractions containing the metabolites of PTH derivatives were collected, concentrated by lyophilization and their masses determined by MALDI-TOF MS (using Voyager-DE Perseptive Biosystems according to the manufacture's procedure).

Substance | potency in anabolic actions on the bone relative to PTH(1-34) [1] | stimulation of resorption markers [1] | site of degradation by skin proteases [2]
PTH (1-31) | as potent as PTH(1-34) | without stimulating resorption markers | 
hPTH(1-34) [PTH (1-34)] |  |  | takes place at the carboxyterminal end
